Entries after “also recorded” stand apart in the source; their conditions may differ.
What was measured:
[1] = system: extracellular glutamate (Glu) and aspartate (Asp) levels, striatum; experiment: in vivo intracerebral microdialysis: extracellular glutamate and aspartate levels in striatum; set-up: species or system rat (Wistar); conditions: for effect on extracellular Glu and Asp levels: 1 mmol/L by reverse microdialysis, striatum, anesthetized rats; for action on glutamate when the glutamate levels are high: rat brain, initial glutamate level high, notably greater than 10 μmol/L; for Effect on Glu end/or Asp: striatum of anesthetized rats, reverse microdialysis; for effect of co-administration of CNQX on the compound's effects: compound at 1 mmol/L co-administered with CNQX, Asp levels are increased
Description: One of the widespread methodological approaches, both in academic laboratories and in industrial laboratories, and used for following the extracellular concentrations of glutamate (Glu) and of aspartate (Asp) before, during and after administration of pharmacological agents targeting their receptors is intracerebral microdialysis. This type of test was therefore used, in order to track the in vivo effects of the molecules according to the invention as compared with those of kainic acid, for which the synthesized molecules are structural analogues (substituted pyrrolidines).
Concentric microdialysis probes with a regenerated cellulose membrane (Spectra/Por hollow fiber; molecular cut off 6,000 Da, 225 μm in external diameter, a length of 3 mm, Spectrum Medical Industries, Los Angeles, Calif., USA) and tubings in molten silica (40 μm i.d×105 μm o.d., Polymicro Technology, Phoenix, Ariz., USA) were manufactured according to a design already published (Bert et al 1996, [26]). They were perfused with a flow rate of 1 μl/min with artificial cerebrospinal fluid or CSF (145.0 mM NaCl; […]; 1.0 mM MgCl2; 1.2 mM CaCl2; 0.45 mM NaH2PO4; 1.55 mM Na2HPO4; pH 7.4) by means of a Harvard pump (Model 22, South Natick, Mass., USA).
The in vivo microdialysis experiments were conducted on male rats of the Wistar strain with an average weight of about 300 g, (provider: Charles River, L'Arbresle, France) anesthetized with urethane (a dose of 1.4 g/kg via an i.p, route, provider: Sigma-Aldrich, St. Louis, Mo., USA). The probes were implanted dorso lateral striatum according to the following stereotaxic coordinates relatively to the bregma: antero-posteriority 0 mm, laterality […], depth […] under the cortical surface. The dialysates (samples) were collected from the beginning of the 4th hour after implantation of the probe. The samples were taken every 5 minutes in PCR tubes of 200 μl (Axygene, Union City, Calif., USA) and immediately frozen at −20° C. The samples were analyzed subsequently in order to determine the glutamate and aspartate contents. The pharmacological agents and the compounds according to the invention were administered in situ by reverse microdialysis by changing the perfusion at the inlet of the probe of the CSF without any pharmacological agent to the one containing the pharmacological agent(s) (Bert et al., 2002 [27]; Parrot et al 2003 [28]).
CE analyses were carried out with a P/ACE MDQ system (Beckman-Coulter, Fullerton, Calif., USA) equipped with an external detector LIF ZETALIF (Picometrics, Toulouse, France). Detection was achieved by fluorescence at a wavelength of 442 nm and generated with a He—Cd laser Omnichrome (Chino, Calif., USA). The emission intensity was collected at 490 nm. Before analysis, the samples were derived with naphthalene-2,3-dicarboxaldehyde with cyanide ions as a nucleophilic agent (pH 8.7; borate buffer 500 mM). The separations were conducted in a capillary of molten silica with an internal diameter of […] and an outer diameter of 375 μm with a length of 63 cm, with a useful length of 52 cm (Polymicro Technology) by using the procedure entirely detailed and validated earlier (Sauvinet et al., 2003 [29] Bert et al., 2002 (271). The Glu and Asp concentrations measured in striatum samples were above detection limits and were determined by interpolation by means of standard ranges.
All the reagents of the neurochemical study (except for the compound according to the invention) were purchased from Sigma-Aldrich (St Louis, Mo., USA). The mother-solutions of the synthesized molecules, of the kainate (KA, agonist of the KA receptors for glutamate), CNQX, 6-cyano-7-nitroquinoxaline-2,3(1H,4H)-dione (CAS-No. 115066-14-3, antagonist of KA receptors), from Glu and Asp were aliquoted to 1 or 0.1 mM and stored at −30° C. After their administration, the tested pharmacological agents were diluted in artificial CSF. […]

[2] = inflow through in vitro model of the choroidal epithelium (blood/cerebrospinal fluid barrier); assay type: in vitro ADME; conditions: rat; basolateral exposure at 150 μm for 60 minutes, 37° C.; read-out: penetration rate of the peripheral blood compartment towards the brain compartment
Experimental: A study was conducted with the BIP platform (Centre de Recherche en Neurosciences de Lyon, Lyons, France) for comparing the inflow of four compounds of interest through the cerebrospinal liquid/blood barrier. The study was carried out with an in vitro model of the choroidal epithelium restoring this interface. Choroidal cells were exposed by their basolateral pole to the compounds at a concentration of 150 μm for 60 minutes. The permeability of the cell monolayers to saccharose was analyzed in terms of these transfers, in order to detect possible toxicity of the compounds.
The epithelial cells are isolated from the choroidal plexus of a lateral ventricle taken on newly born rats as described earlier. The cells are sown on microporous supports (Transwell PC, pore size 0.4 μm, surface area […], diameter 6.5 mm), and cultivated in DMEM-F12 (1:1) supplemented with 10% FCS, 2 mM glutamine and 50 μg/ml gentamycin, as well as with various growth factors. The medium is renewed every two days until the day of experiment.
The transfer measurements were conducted under kinetic conditions (3 phases), with stirring (200 rpm), at 37° C., in a Ringer-Hepes buffer (RH). The volumes used in both compartments during the transfer are adjusted so as to minimize any hydrostatic pressure effect. The inserts are rinsed in RH before initiating the permeability study. For each compound, the transfer is carried out in parallel on three laminin inserts (without any cell) and three inserts with a cell monolayer.
Inflow measurements (from blood to the cerebrospinal fluid) were conducted during a kinetic study (20 min periods) for the four compounds of interest. Briefly, the compound of interest, diluted to 150 μm in RH is placed in the lower compartment of a multi-well cultivation plate, which reproduces the blood compartment. Transfer is initiated by placing a culture insert containing RH in the upper compartment, which corresponds to the cerebrospinal fluid. At regular intervals, an aliquot of the upper medium is taken and replaced with an equivalent volume of preheated RH at 37° C. […] The samples taken are analyzed by high performance liquid chromatography (HPLC) on an LC10 Shimadzu system chain (Duisburg, Germany), equipped with a spectrophotometric detector.
At the end of the transfer of the compounds of interest, [^14C]-saccharose is added as an aliquot into the upper compartment of the inserts. […] The media sampled in the wells and in the inserts at the end of the transfer of saccharose are analyzed by liquid scintillator counting in a β Canberra Packard TRI-GARB 1600TR counter. […]
The permeability coefficient of the cell monolayer Pe (in cm·min^−1) is calculated from the PS determined on laminin filters and filters with cells and by taking into account the exchange surface area. […]

[3] = system: glutamate levels in the striatum; conditions: ex vivo and in vivo preparations, refs [89-92]; cited from earlier work
[4] = target: CB1 (receptors of type 1 to endocannabinoids, CB-1) (Homo sapiens, UniProt P21554); experiment: in vitro specific binding inhibition (radioligand, 60 receptors); conditions: n = 2, read-out: % of inhibition of the control specific binding at 10 μM, CB1 towards its agonistic ligand
Experimental: In order to determine the target receptors of the compounds according to the invention, experiments of specific binding inhibition were conducted in vitro. Pharmacology in vitro: tests of specific bindings.
Sixty receptors were tested in the study according to standardized methods by using their specific radioligand as reported earlier.
The results may be expressed as a % of the specific control bond [(measured specific bond/control specific bond)×100] and as a % of inhibition of the specific control bond [100−(measured specific bond/control specific bond)×100] obtained in the presence of one of the two tested compounds (I.2 and I.4).
These experiments (Table 2 hereafter) have shown that the compounds I.2 and I.4 modify the specific binding of a control agonist of the receptors of type 1 to endocannabinoids (CB-1) (according to the test described in reference).

Chain of CB1 (receptors of type 1 to endocannabinoids, CB-1) (P21554 whole entry): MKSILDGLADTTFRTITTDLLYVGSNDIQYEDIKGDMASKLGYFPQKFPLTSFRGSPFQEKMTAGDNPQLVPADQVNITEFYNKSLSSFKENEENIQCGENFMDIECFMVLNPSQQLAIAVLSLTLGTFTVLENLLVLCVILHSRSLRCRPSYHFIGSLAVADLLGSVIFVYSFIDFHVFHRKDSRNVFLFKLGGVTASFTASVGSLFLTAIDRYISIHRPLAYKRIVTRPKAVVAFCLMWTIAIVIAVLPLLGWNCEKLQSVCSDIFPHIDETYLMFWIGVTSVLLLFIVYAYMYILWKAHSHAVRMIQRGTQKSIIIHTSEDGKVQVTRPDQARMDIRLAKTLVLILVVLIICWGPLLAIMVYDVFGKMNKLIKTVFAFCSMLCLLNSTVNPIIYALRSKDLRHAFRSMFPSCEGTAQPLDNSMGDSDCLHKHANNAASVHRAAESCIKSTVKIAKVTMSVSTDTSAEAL

Structure (SMILES)	effect on extracellular Glu and Asp levels [1]	action on glutamate when the glutamate levels are high [1]	Pharmacological potentiality for modulating the Glu system ([1]; summary of preliminary results)	Effect on Glu end/or Asp ([1]; summary of preliminary results)	Papp B→A at 60 min, 150 μm [2] [×10⁻⁶ cm/s]	melting point [°C]	effect on glutamate levels in the striatum [3]	effect of co-administration of CNQX on the compound's effects [1]	inhibition at 10 µM [4] [%]	Action through the KA receptors ([1]; summary of preliminary results, co-administration of CNQX (antagonist of KA receptors))
N[C@H](C(=O)O)[C@H]1CNC[C@H]1O [Compound I.1, (αS,3R,4S) α-amino-(4-hydroxy-pyrrolidin-3-yl)acetic acid]	effects similar to KA	inhibitory actions on the glutamate	Yes	Yes	≤ 5	–	–	–	–	–
CN[C@H](C(=O)O)[C@H]1CNC[C@H]1O (racemic) [Compound I.5, (3,4-cis).α-N-methylamino-(4-hydroxy-pyrrolidin-3-yl)acetic acid]	–	–	–	–	–	192	–	–	–	–
Cc1c(C(=O)NN2CCCCC2)nn(-c2ccc(Cl)cc2Cl)c1-c1ccc(Cl)cc1 [rimonabant]	–	–	–	–	–	–	cause an increase or do not affect the extracellular glutamate levels	–	–	–
C=C(C)[C@H]1CN[C@H](C(=O)O)[C@H]1CC(=O)O [KA, kainate, reference compound]	affected	–	–	–	–	–	–	–	–	–
Cc1c(C(=O)c2cccc3ccccc23)c2cccc3c2n1[C@H](CN1CCOCC1)CO3 [WIN 55, 212-2]	–	–	–	–	–	–	induces a reduction in the glutamate levels	–	–	–
CNC(=O)[C@H](NC(C)=O)[C@@H]1CNC[C@@H]1O [Compound I.3, α-acetamido-(4-hydroxy-pyrrolidin-3-yl)-N-methylacetamide(αR,3S,4R)]	an effect similar to that of kainate	inhibitory actions on the glutamate	yes	yes	≤ 5	–	–	seems to partly attenuate its effects	–	–
CNC(=O)[C@@H](N)[C@H]1CNC[C@H]1O [Compound I.4, .-amino-(4-hydroxy-pyrrolidin-3-yl)-N-methylacetamide(αS,3R,4S)]	a reduction in the Glu and Asp levels; also recorded: a reduction in the cerebral extracellular glutamate levels	inhibitory actions on the glutamate	yes	yes	≤ 5	–	–	seems to partly attenuate its effects	29	–
N[C@@H](C(=O)O)[C@@H]1CNC[C@@H]1O [Compound I.2, (αR,3S,4R) α-amino-(4-hydroxy-pyrrolidin-3-yl)acetic acid]	a reduction in the Glu and Asp levels; also recorded: a reduction in the cerebral extracellular glutamate levels	inhibitory actions on the glutamate	Yes	Yes	≤ 5	–	–	seems to partly attenuate its effects	29	yes for Asp
